Consider three compounds from patent US20200352912A1, “ANTIMICROBIAL COMPOSITIONS AND METHODS OF USING THE SAME” (The Board Of Supervisors Of Louisiana State University And …, priority 2018, published 2020).

“Also recorded” adds a separate entry of the source.

Experiment [1] deals with C. albicans and S. aureus. Particulars: mouse, in vivo; cited from earlier work.
The subject of experiment [2] is C. albicans and S. aureus. The experiment can be described thus: mouse C. albicans-S. aureus polymicrobial intra-abdominal infection. Format: in vivo, mice. As for the experimental part:
Effect of inhibition of EP4 receptor signaling on survival. Mice received either vehicle or EP4 receptor antagonist at a dose of 10 mg/kg by i.p. injection as indicated in Materials and Methods. Mortality was assessed using Kaplan Meier test (***P<0.001; n=20/group) compared to control groups. Data shown are representative of three replicate experiments.
The mouse peritonitis/intra-abdominal model was performed as previously described (8). In brief, for MRSA peritonitis, mice were injected intraperitoneally (i.p.) with 4×10^6 CFU or 5×10^6 CFU or 2×10^7 CFU of S. aureus in 0.2 ml of PBS containing 3% hog gastric mucin type III (Sigma Aldrich). Mice injected i.p. with 0.2 ml of mucin/PBS served as a negative infection control. For the intra-abdominal infection with C. albicans and S. aureus, mice were injected i.p. with 7×10^6 CFU of C. albicans and 8×10^7 CFU of S. aureus (8.7×10^7 CFU total) in 0.2 ml of PBS. After inoculation, mice were observed over 10 days for signs of morbidity (hunched posture, inactivity, lethargy, and ruffled fur) and mortality. […] In the MRSA peritonitis experiments, mice were sacrificed at 24 or 48 h post-inoculation to assess microbial burden. Peritoneal cavities were lavaged by injection of 2 ml of sterile PBS followed by gentle massaging of the peritoneal cavity. Peritoneal lavage fluid then was removed using a pipette inserted into a small incision in the abdominal cavity. Spleens were removed, weighed, and mechanically homogenized prior to CFU analysis. Microbial burdens in the peritoneal lavage fluid and spleen were enumerated as described above.
Each inhibitor was prepared fresh as a concentrated stock (20-25 mg/ml) in DMSO and diluted to a working concentration of […] in sterile PBS (final DMSO concentration, 2.3%). A sham treatment containing only 2.3% DMSO in PBS was also prepared. For the MRSA peritonitis study, the EP4 receptor antagonist was administered 2 h after S. aureus inoculation and once daily thereafter until day 4 post inoculation. For the IAI co-infection study, COX inhibitor or vehicle control was administered 4 h prior to and 4 and 8 h after inoculation with C. albicans and S. aureus while the EP receptor antagonists were administered daily starting 1 day prior to and 5 days after infection. All other procedures were performed as described above. Control groups received the vehicle at the same dose interval.
In a final set of experiments, we evaluated the ability of L-161, 982 to reduce lethality in co-infected mice. Mice co-inoculated with the standard 7×106 C. albicans CFU and 8×107 S. aureus CFU (8.7×10^7 CFU total) were treated with L-161, 982 (10 mg/kg) 2 h post infection and once daily afterwards until day 5. […]

For the next experiment, the system named is S. aureus NRS383. The experiment is described as follows: planktonic antimicrobial assay (OD600 growth). Particulars: 100 μg/ml (inhibitor-specific concentrations b175), OD600 up to 24 h. Format: cell-based, Staphylococcus aureus. As for the experimental part: Effect of COX enzyme inhibitors or PGE2 EP receptor antagonists on microbial growth. The antimicrobial activity of selective COX enzyme inhibitor or PGE2 EP receptor antagonist on the growth of C. albicans DAY185 (A), S. aureus NRS383 (B) and MRSA and MSSA clinical isolates (C). Growth of C. albicans and S. aureus was monitored for up to 24 h in medium alone or supplemented with DMSO or EP receptor antagonists or COX enzyme inhibitor at physiologically relevant concentrations. Data shown are representative of three independent experiments.
C. albicans and S. aureus were grown as described above. […] Cells were grown with shaking as described above, and 1 ml aliquots were removed each hour in duplicate and optical density at 600 nm measured (OD600) by spectrophotometer (Biomate 3S, Thermo Scientific).

The subject of experiment [3] is S. aureus in polymicrobial biofilms. Particulars: 1,600 μg/ml; cited from earlier work.

As for `COc1ccc2c(c1)c(CC(=O)O)c(C)n2C(=O)c1ccc(Cl)cc1` [indomethacin], the “mortality of co-infected mice” value in experiment [1] was “prevented mortality”.

For `CC(C(=O)Nc1cc(C#N)ccc1CCCC(=O)O)c1ccc(F)c2ccccc12` (centres unmarked) [ONO AE3 208], the effect on survival entry in experiment [2] (10 mg/kg i.p.) is reported as “no effect; also recorded: did not enhance survival”. The “antimicrobial effect on S. aureus in vivo” value in experiment [2] (mouse, in vivo) is “no antimicrobial effect”. The “growth of S. aureus” value in the experiment on S. aureus NRS383 is “no antimicrobial effect”.

On to `CN[C@H](CC(C)C)C(=O)N[C@H]1C(=O)N[C@@H](CC(N)=O)C(=O)N[C@H]2C(=O)N[C@H]3C(=O)N[C@H](C(=O)N[C@H](C(=O)O)c4cc(O)cc(O)c4-c4cc3ccc4O)[C@H](O)c3ccc(c(Cl)c3)Oc3cc2cc(c3O[C@@H]2O[C@H](CO)[C@@H](O)[C@H](O)[C@H]2O[C@H]2C[C@](C)(N)[C@H](O)[C@H](C)O2)Oc2ccc(cc2Cl)[C@H]1O` [vancomycin], for which the “viability of S. aureus in polymicrobial biofilms” value in experiment [3] is on record as “no effect on viability”.
